Measurements as given in PubChem BioAssay (NCI).
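Values below derive from 48-hour exposures of cells grown in 96-well plates, with endpoints linearly interpolated between the two concentrations bracketing the appropriate inhibition level. At the TGI there is no net growth.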 Where a SMILES comes first, the peptide text is derived from it. The star is where a group is joined. Boc = CC(C)(C)OC(=O)*; OBn = c1ccc(CO*)cc1

Experiments:
Assay in all cases: inhibition of tumour cell growth, NCI panel, 48 h
NCI-H460 lung = test system: NCI-H460 lung
HL-60(TB) leukemia = test system: HL-60(TB) leukemia
PC-3 prostate = test system: PC-3 prostate
NCI-H23 lung = test system: NCI-H23 lung
SK-MEL-5 melanoma = test system: SK-MEL-5 melanoma
MDA-N = test system: MDA-N
HOP-62 NSCLC = test system: HOP-62 NSCLC
KM12 colon = test system: KM12 colon
SN12C renal = test system: SN12C renal
DU-145 prostate = test system: DU-145 prostate
MALME-3M melanoma = test system: MALME-3M melanoma
TK-10 renal = test system: TK-10 renal
HOP-92 NSCLC = test system: HOP-92 NSCLC
SNB-19 CNS = test system: SNB-19 CNS
OVCAR-3 ovarian = test system: OVCAR-3 ovarian
CAKI-1 renal = test system: CAKI-1 renal
HT29 colon = test system: HT29 colon
UO-31 renal = test system: UO-31 renal
SR leukemia = test system: SR leukemia
CCRF-CEM leukemia = test system: CCRF-CEM leukemia
HCT-15 colon = test system: HCT-15 colon
NCI-H522 lung = test system: NCI-H522 lung
SF-539 CNS = test system: SF-539 CNS
COLO 205 colon = test system: COLO 205 colon
MDA-MB-231 breast = test system: MDA-MB-231 breast
SW-620 colon = test system: SW-620 colon
NCI/ADR-RES ovarian = test system: NCI/ADR-RES ovarian
786-0 renal = test system: 786-0 renal
M14 melanoma = test system: M14 melanoma
HCC-2998 colon = test system: HCC-2998 colon
MCF7 breast = test system: MCF7 breast
SK-OV-3 ovarian = test system: SK-OV-3 ovarian
SK-MEL-28 melanoma = test system: SK-MEL-28 melanoma
MOLT-4 leukemia = test system: MOLT-4 leukemia
HS 578T breast = test system: HS 578T breast
SNB-75 CNS = test system: SNB-75 CNS
RXF 393 renal = test system: RXF 393 renal
T-47D breast = test system: T-47D breast
SF-268 CNS = test system: SF-268 CNS
ACHN renal = test system: ACHN renal
HCT-116 colon = test system: HCT-116 colon
K-562 leukemia = test system: K-562 leukemia
LOX IMVI melanoma = test system: LOX IMVI melanoma
IGROV1 ovarian = test system: IGROV1 ovarian
SK-MEL-2 melanoma = test system: SK-MEL-2 melanoma
MDA-MB-435 = test system: MDA-MB-435
A549 NSCLC = test system: A549 NSCLC
U251 CNS = test system: U251 CNS
BT-549 breast = test system: BT-549 breast
EKVX NSCLC = test system: EKVX NSCLC
OVCAR-4 ovarian = test system: OVCAR-4 ovarian
RPMI-8226 leukemia = test system: RPMI-8226 leukemia
OVCAR-8 ovarian = test system: OVCAR-8 ovarian
UACC-257 melanoma = test system: UACC-257 melanoma
A498 renal = test system: A498 renal
SF-295 CNS = test system: SF-295 CNS
NCI-H226 lung = test system: NCI-H226 lung
UACC-62 melanoma = test system: UACC-62 melanoma
OVCAR-5 ovarian = test system: OVCAR-5 ovarian
HOP-18 NSCLC = test system: HOP-18 NSCLC
DLD-1 colon = test system: DLD-1 colon
M19-MEL melanoma = test system: M19-MEL melanoma
KM20L2 colon = test system: KM20L2 colon
LXFL 529 NSCLC = test system: LXFL 529 NSCLC
SNB-78 CNS = test system: SNB-78 CNS
DMS 273 small cell lung = test system: DMS 273 small cell lung

Measured: TGI

O=[N+]([O-])c1nccn1CC(O)CN1CCCCC1 (stereo not given)
not listed: HOP-18 NSCLC | DLD-1 colon | M19-MEL melanoma | KM20L2 colon | LXFL 529 NSCLC | SNB-78 CNS | DMS 273 small cell lung
> 100 µM: all other assays above

Cc1ccc(Sc2ccccc2[N+](=O)[O-])cc1
58.6 µM: HL-60(TB) leukemia
68.3 µM: HCC-2998 colon
70.9 µM: SF-295 CNS
71.2 µM: NCI-H226 lung
62.2 µM: HT29 colon | HCT-15 colon
62.3 µM: COLO 205 colon
59.2 µM: HOP-92 NSCLC
59.8 µM: RXF 393 renal
95.4 µM: SNB-78 CNS
67.8 µM: UACC-257 melanoma
82.5 µM: DMS 273 small cell lung
60 µM: SK-MEL-28 melanoma
81.4 µM: MOLT-4 leukemia
30.8 µM: SK-MEL-5 melanoma
61.7 µM: U251 CNS
40.6 µM: SNB-75 CNS
78.2 µM: NCI-H23 lung
not listed: PC-3 prostate | MDA-N | DU-145 prostate | SNB-19 CNS | CAKI-1 renal | NCI-H522 lung | MDA-MB-231 breast | NCI/ADR-RES ovarian | 786-0 renal | MCF7 breast | HS 578T breast | T-47D breast | MDA-MB-435 | BT-549 breast
> 100 µM: all other assays above

CC(C)CC(NC(=O)OC(C)(C)C)C(=O)NC(CC(=O)OCc1ccccc1)C(=O)OCc1ccccc1 (stereo not drawn) (Boc-Leu-Asp(OBn)-OBn; configuration not given here)
56.8 µM: HCC-2998 colon
81.7 µM: U251 CNS
75 µM: UO-31 renal
60.9 µM: TK-10 renal
97.3 µM: RPMI-8226 leukemia
38.6 µM: M14 melanoma
84.8 µM: PC-3 prostate
99.5 µM: SNB-19 CNS
96.7 µM: SF-539 CNS
57.3 µM: SK-MEL-5 melanoma
50.9 µM: SN12C renal
79.2 µM: NCI-H522 lung
45.9 µM: UACC-62 melanoma
63.8 µM: SR leukemia
49.6 µM: OVCAR-3 ovarian | 786-0 renal
76.9 µM: MOLT-4 leukemia
49.7 µM: LOX IMVI melanoma
90.5 µM: RXF 393 renal
not listed: HCT-15 colon | SK-MEL-28 melanoma | ACHN renal | IGROV1 ovarian | OVCAR-4 ovarian | HOP-18 NSCLC | DLD-1 colon | M19-MEL melanoma | KM20L2 colon | LXFL 529 NSCLC | SNB-78 CNS | DMS 273 small cell lung
> 100 µM: all other assays above
